# Measurements from patent US20110318298A1, “VIRAL INFECTION THERAPEUTIC DRUG CONTAINING POLYALKYLENEIMINE” (Nippon Shokubai Co., Ltd., priority 2008, published 2011).
# Where two headings read alike, the source gives them in different places.
# What was measured:
# [1] = tested on: HSV-2; assay: Comparison of SP-012 and acyclovir in HSV-2-infected mice (Example 9); conditions: for Number of death/total number: 0.2 mg per administration to the genital until seven days after infection, 15 days observation; for Number of HSV-2 positive mouse/total number: genital wash, first day to 12 days after infection
# Protocol: Five to six-week-old female BALB/c mice were locally (genital) inoculated with HSV-2 in an amount of 20 μl (containing a reduced viral amount of 1×10^4 PFU per mouse in consideration of tracing also untreated control mice). […] From the first day to 12 days after the viral infection, the genital was washed with phosphate-buffered physiological saline every day, and the amount of virus therein was measured in each mouse. Also, for 15 days, the severity of the development of the disease and the case of death were recorded.
# [2] = tested on: HSV-2; assay: Inhibitory effect on HSV-2 virus invasion of the cells (Vero cells, 37° C.); type: cell-based, herpes simplex virus type 2; conditions: for Amount of virus invaded in 30 minutes / Amount of virus invaded in 3 hours: Vero cells, 37° C., control = 100%
# Text: Subsequently, the inhibitory effect of polyethyleneimine in the stage in which HSV-2 adsorbed to the host cells invades the cells was investigated.
# [3] = tested on: HSV-2; assay: Inhibitory effect on HSV-2 virus adsorption to the cells (Vero cells, 4° C.); conditions: for Amount of virus adsorbed to host cells: Vero cells, 4° C. one hour, control = 100%
# [4] = in vitro; conditions: African green monkey
# Protocol: (§1) A test for evaluation of the cytotoxicity of polyethyleneimine in each cell was carried out according to the following procedure.
# (§2) The cell proliferation count was then measured by trypan blue staining.
# [5] = tested on: HSV-2; assay: Anti-viral activity on HSV-2, plaque assaying in Vero cells; conditions: Human alphaherpesvirus 2, Vero
# [6] = tested on: Vero cells
# Protocol: as §1, §2
# [7] = tested on: MDCK cells; assay: Cytotoxicity (CC50), cell count by trypan blue staining, MDCK cells; type: cell-based, dog
molecule,measurement,setting,value
"Nc1nc2c(ncn2COCCO)c(=O)[nH]1 [Acyclovir, acyclovir]",Number of death/total number,[1],0/10
same,Number of death/total number,[1]; listed as acyclovir,No mice died
same,Development of the disease (genital inflammation),"[1]; 0.2 mg per administration, 10 mice",transient inflammation
same,Number of HSV-2 positive mouse/total number,[1]; 0.2 mg per administration,1/10
same,Number of HSV-2 positive mouse/total number,"[1]; 0.2 mg per administration, listed as acyclovir",the virus was detected in one out of 10 mice
same,Amount of virus invaded in 30 minutes,[2]; 1 μg/ml,99%
same,Amount of virus invaded in 30 minutes,[2]; 10 μg/ml,94%
same,Amount of virus invaded in 30 minutes,[2]; 100 μg/ml,87%
same,Amount of virus invaded in 3 hours,[2]; 100 μg/ml,89%
same,Amount of virus invaded in 30 minutes,[2]; 1000 μg/ml,68%
same,Amount of virus invaded in 3 hours,[2]; 1000 μg/ml,Toxic
same,Amount of virus invaded in 30 minutes,[2]; 10000 μg/ml,Toxic
same,Amount of virus invaded in 3 hours,[2]; 10000 μg/ml,Toxic
same,"Inhibition of viral invasion, overall finding",[2]; over the tested concentrations,did not inhibit HSV-2 virus invasion of the cells
same,Amount of virus adsorbed to host cells,[3]; 100 μg/ml,76%
same,Amount of virus adsorbed to host cells,[3]; 1000 μg/ml,Toxic
same,Amount of virus adsorbed to host cells,[3]; 10000 μg/ml,Toxic
same,"Inhibition of viral adsorption, overall finding",[3]; over the tested concentrations,almost no dose-dependent adsorption-inhibitory effect
same,CC50 at 72 h,[4],890 mg/L
same,IC50,[5]; read-out: Anti-viral activity (IC50) A,0.91 mg/L
same,IC50,[5]; read-out: Anti-viral activity (IC50) B,0.92 mg/L
polyethyleneimine [P-1000],Cytotoxicity (CC50),[6],0.0044 μl/ml
polyethyleneimine [SP-003],Cytotoxicity (CC50),[7],0.057 μl/ml
same,Cytotoxicity (CC50),[6],0.071 μl/ml
polyethyleneimine [SP-006],Cytotoxicity (CC50),[7],0.57 μl/ml
same,Cytotoxicity (CC50),[6],1.1 μl/ml
polyethyleneimine [SP-012],Cytotoxicity (CC50),[7],0.34 μl/ml
polyethyleneimine [SP-018],Cytotoxicity (CC50),[7],0.064 μl/ml
same,Cytotoxicity (CC50),[6],0.057 μl/ml
polyethyleneimine [SP-200],Cytotoxicity (CC50),[6],0.0045 µg/mL
